Laboratory results published in US20240299486A1, “ADDRESSING INJECTION SITE REACTIONS ASSOCIATED WITH THE ADMINISTRATION OF ELAMIPRETIDE” (STEALTH BIOTHERAPEUTICS INC., priority 2022, published 2024).

Legend:
[1] = Phase 1 crossover study: pharmacokinetics of elamipretide and metabolites M1, M2; details: human, in vivo, 60 mg
Description: • This Phase 1, open-label, 6-arm crossover study included 10 healthy subjects ≥18 and ≤65 years of age. • All subjects received 60 mg of SQ elamipretide to alternating quadrants of the abdomen on each of 6 occasions (FIG. 3), with or without the interventions listed in Table 2. • For each treatment arm, ISR clinical and self-assessments were performed pre-elamipretide administration and at 0.5, 1, 2, 4, 6, 12, 24, and 48 hours after each elamipretide dose. • Blood samples for plasma concentrations of elamipretide and its metabolites were also collected pre-dose and at 0.25, 0.5, 1, 2, 4, and 6 hours post-elamipretide dose. • Primary endpoints consisted of comparisons of the grading from the clinical assessments and the self-assessments of each ISR parameter following administration of elamipretide with each separate intervention versus that of elamipretide alone. • Secondary endpoints consisted of comparison of various pharmacokinetic (PK) parameters and adverse events following administration of elamipretide with each separate intervention versus that of elamipretide alone.
After the screening period (up to 28 days) in this phase 1, open-label, 4-week, 6-part, crossover study, all eligible subjects received 60 mg (0.75 mL) of SC elamipretide to alternating quadrants of the abdomen on each of 6 occasions, with or without potential ISR interventions. […]

human MRGPRX2 = human MRGPRX2 (Homo sapiens, UniProt Q96LB1); experiment: cell-based
Description: A clonal HEK293 cell line stably expressing human MRGPRX2 and Galpha15 was used for the assay, which was performed using a fluorescent plate reader. Cells were plated at 40,000 cells per well in a glass-bottom 96 well plate 20 hours before the assay. Cells were loaded with N-[4-[6-[(Acetyloxy)methoxy]-2,7-difluoro-3-oxo-3H-xanthen-9-yl]-2-[2-[2-[bis[2-[(acetyloxy)methoxy]-2-oxoethyl]amino]-5-methylphenoxy]ethoxy]phenyl]-N-[2-[(acetyloxy)methoxy]-2-oxoethyl]glycine (acetyloxy)methyl ester (Fluo-4 AM) for 45 minutes at 37° C. and allowed to rest for 30 minutes before use. Baseline fluorescence was calculated as the average of a 30 second read, with data points taken at 5 second intervals. Response was defined as the maximum signal within 90 seconds after addition of elamipretide, subtracted by the baseline fluorescence signal. Concentrations were tested in duplicate and the assay was run 6 times. The curve was calculated as a four-parameter non-linear fit with variable slope. Traces were obtained using the same cell line and same Fluo-4 AM loading protocol but were imaged using a fluorescence microscope using a standard fluorescein isothiocyanate (FITC) filter. Fluorescence for different cells was calculated using region of interest selections.
A calcium-based readout of receptor activity was used to determine whether elamipretide activates human MRGPRX2 and its mouse ortholog Mrgprb2. This assay is known to be widely used in drug screening and utilized a cell line stably transfected with the receptor along with Galpha15, a promiscuous G protein that couples to the receptor and induced an increase in intracellular calcium when the receptor was activated. Thus, an increase in calcium levels reflected receptor activation. Calcium levels were detected by imaging Fluo-4 (from Fluo-4 AM), a dye that increases in fluorescence when bound to calcium.

[2] = test system: Mouse primary peritoneal mast cells; experiment: Mast cell activation (Fluo-4 calcium imaging); format: cell-based; details: 500 micrograms/mL elamipretide
Description: Mouse primary peritoneal mast cells were isolated from wild type and Mrgprb2 knockout mice. Mast cells were incubated in Dulbecco's Modified Eagle Medium, supplemented with 10% fetal bovine serum and 100 ng/mL human stem cell factor for 2 hours in wells of a glass-bottom 96 well plate that had been previously coated with fibronectin. […] A confocal fluorescence microscope was used to assess changes in free intracellular calcium levels in each mast cell in a visual field, as measured by changes in Fluo-4 fluorescence using a standard FITC filter, reflecting responsiveness to elamipretide. Cells were identified as responding if the Fluo-4 signal rose by at least 50% for at least 10 seconds, which clearly distinguishes a ligand-induced response from random flickering events.
Injection site reactions induced by several classes of drugs were mediated in mice by Mrgprb2-dependent activation of mast cells. Whether elamipretide activated primary mouse connective tissue mast cells was evaluated, and if so, it was evaluated whether this was Mrgprb2-dependent. […] Briefly, primary connective tissue mast cells were purified from mice, loaded with Fluo-4, and changes in fluorescence after elamipretide exposure were imaged. T fluorescence of over 200 individual mast cells, each from wild type and Mrgprb2 knockout mice, were monitored and the percentage of total cells that responded was determined.

human MRGPRX2, sequence (Q96LB1 whole entry): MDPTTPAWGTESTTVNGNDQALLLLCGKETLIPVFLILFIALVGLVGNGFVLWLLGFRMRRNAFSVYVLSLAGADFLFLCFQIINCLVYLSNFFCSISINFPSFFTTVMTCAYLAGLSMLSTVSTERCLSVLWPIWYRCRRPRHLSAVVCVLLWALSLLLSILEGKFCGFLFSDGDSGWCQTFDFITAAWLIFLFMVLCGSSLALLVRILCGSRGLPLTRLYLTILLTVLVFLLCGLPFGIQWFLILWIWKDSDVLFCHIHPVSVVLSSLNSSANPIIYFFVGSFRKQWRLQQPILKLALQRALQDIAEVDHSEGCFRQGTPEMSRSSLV

Cc1cc(O)cc(C)c1C[C@H](NC(=O)[C@H](N)CCCNC(=N)N)C(=O)N[C@@H](CCCCN)C(=O)N[C@@H](Cc1ccccc1)C(N)=O (stereo in doubt) [Elamipretide, H-D-Arg-2′,6′Dmt-Lys-Phe-NH2]
Tmax [1]: 30 min | EC50 (human MRGPRX2): 98.5 µM | EC50 relative to the typical elamipretide injection concentration of 40 mg/mL (times lower) (human MRGPRX2): ~600 times | Fluo-4 fluorescence after elamipretide exposure (human MRGPRX2; HEK293 cells transfected with MRGPRX2): increased | intracellular calcium response of mast cells ([2]; mast cells from Mrgprb2 knockout mice): almost no responses | intracellular calcium response of mast cells ([2]; wild-type mast cells): Robust increases in intracellular calcium
